Laboratory results reported in patent US7045495B2 (Sloan-Kettering Institute for Cancer Research, priority 1996, dated 2006).
“And” between values parts separate entries of the source, which are not always exact repeats. Identical values can stand only once.

What was measured:
[1] = system: gastric cancer cells (SK-GT cells); assay: cell proliferation studies with [3H]-thymidine; format: cell-based, human
[2] = system: MDA-MB-468 breast cancer cells; assay: apoptosis by QFM, Hoechst-33258 staining; format: cell-based, human; conditions: for percentage of cells undergoing apoptosis (QFM): FIG. 9, safingol 50 μM
Method: PRELIMINARY STUDIES. […] Apoptosis was measured by quantitative fluorescent microscopy (QFM) of nuclear changes induced by apoptosis, as determined by bisbenzimide trihydrochloride (Hoescht-33258) staining of condensed nuclear chromatin (24). For the QFM duplicate samples of 500 cells each were counted and scored for the incidence of apoptotic chromatin condensation using an Olympus BH-2 fluorescence microscope.
Applicants also tested the PKC inhibitor UCN-01 (27) which is currently in phase I clinical trial at the NCI. In contrast to safingol, which inhibits PKC by binding to its regulatory domain, UCN-01 inhibits PKC at its catalytic domain. Therefore, assessment of the effect of UCN-01 on inducing apoptosis in combination with MMC on MDA-MB-468 was also performed. The QFM method to quantitate apoptosis was again used. The conditions tested were identical to those described above for safingol except UCN-01 (1 μM) was substituted for safingol in all the conditions.
(§1) Induction of apoptosis was estimated by counting the frequency of condensed nuclear chromatin with Hoechst-33258 stain in duplicate samples of 400 cells.

cdk2 = cdk2 activity by histone type-I phosphorylation after immunoprecipitation from treated cells; format: cell-based, human; conditions: MKN-74 cells; 24 hours; MMC 5.0 μg/ml, safingol 50 μM; FIG. 8
Method: (ii) Safingol increases cdk2 activity only when co-administered with chemotherapy: For determination of cdk2 activity MKN-74 cells were treated according to the conditions shown to enhance chemotherapy induced apoptosis: (i) no drug (control) for 24 hours, (ii) Mitomycin-C alone (5.0 μg/ml) for 24 hours, (iii) Safingol alone (50 μM) for 24 hours, (iv) the combination of safingol (50 μM) and Mitomycin-C (MMC, 5.0 μg/ml) for 24 hours. Cdk2 activity was determined by histone type-I phosphorylation, as described (38). For these studies cdk2 was first immunoprecipitated from the cell lysates following treatment under these four conditions. The kinase reaction was allowed to proceed at 30° for 30 minutes in the presence of histone type-I and [^32P]ATP. For each sample a control sample was run under the same conditions, but IgG was used in place of […]. This allowed for detection on non-specific kinase activity which was then subtracted out from the cdk2 activity to determine the absolute radioactive incorporation attributable to cdk2. The samples were transferred to a 10% SDS PAGE gel for analysis. The autoradiographs were analyzed on a phosphoimager for determinations of relative cdk2 activity.

MKN-74 cells [3] = assay: apoptosis by QFM, Hoechst-33258 staining; format: cell-based, human
Method: (§2) Apoptosis was measured by two different methods: (i) Quantitative fluorescent microscopy (QFM) of nuclear changes induced by apoptosis, as determined by bisbenzimide trihydrochloride (Hoescht-33258) staining of nuclear chromatin (15), and (ii) a terminal deoxynucleotidyl transferase (TdT) assay that labels the 3′-OH ends of DNA fragments produced in apoptotic cells (16). […] MMC was diluted in water. A stock safingol solution was constituted in DMSO and was subsequently diluted at least 1:100 in media for all experiments. […] For QFM determinations, the cells were fixed in 3% paraformaldehyde and incubated at room temperature for 10 minutes. The fixative was removed and the cells were washed with 1×PBS, resuspended in 20 μl 1×PBS containing only 8 μg/ml of bisbenzimide trihydrochloride (Hoechst #33258), and incubated at room temperature for 15 minutes. Aliquots of the cells (10 μl) were placed on glass slides coated with 3-amino-propyl-triethoxysilane, and duplicate samples of 500 cells each were counted and scored for the incidence of apoptotic chromatin condensation using an Olympus BH-2 fluorescence microscope equipped with a BH2-DM2U2UV Dich. Mirror Cube filter (Olympus, Lake Success, N.Y.). For the TdT assays, the ApopTag Kit (Oncor, Gaithersburg, Md.) was used. This method employs a fluoresceinated antidigoxigenin antibody directed against nucleotides of digoxigenin-11-dUTP (d-dUTP) which are catalytically added to the 3-ends fragmented DNA by TdT. Briefly, 1–2×10^6 cells were washed and fixed with 1% paraformaldehyde. The fixed cells were incubated in a reaction mixture containing TdT and d-dUTP for 30 minutes at 37° C. Stop/wash buffer was added, and the cells were resuspended in 100 μl of fluorescinated anti-digoxigenin antibody for 30 minutes at room temperature. The cells were then washed with 0.1% Triton X-100 and counterstained with propidium iodide (PI) solution. Green (d-dUTP labeled DNA strand breaks) and red (PI staining for total DNA content) fluorescence of individual cells were measured on a FACScan flow cytometer (Becton Dickinson, San Jose, Calif.). The resulting bivariate plots enabled the detection of apoptotic events within the cell cycle. The R1 cursor was set using the control specimen to define normal levels of green fluorescence (i.e., basal levels of apoptosis). Cells with fluorescence above the R, cursor were considered apoptotic. The data from 10,000 cells were collected and analyzed using CellFit and LYSYS software (Becton Dickinson).
Apoptosis was again measured by QFM staining.
as §1
For these studies apoptosis was measured by quantitative fluorescent microscopy (QFM) determination with bisbenzimide trihydrochloride stain (Hoescht-33258) for condensed nuclear chromatin characteristic of apoptotic cells.
For QFM determinations 500 cells were counted and scored for the incidence of apoptotic chromatin changes under an Olympus BH-2 fluorescence microscope in duplicate samples, ±SD, using a BH2-DM2U2UV Dich. Mirror Cube filter.
To study this further applicants elected to examine five bis-indolylmaleimides with various potencies against PKC. […] The induction of apoptosis was estimated by counting the frequency of condensed nuclear chromatin with Hoechst-33258 stain in duplicate samples of 400 cells.

SK-GT-5 cells = assay: apoptosis by quantitative fluorescent microscopy (QFM), Hoechst-33258 staining; format: cell-based, human; conditions: for percentage of cells undergoing apoptosis (QFM): FIG. 4: safingol 50 μM and/or PMA 1 ng/ml for 1 hour, then MMC 5 μg/ml or no drug 24 hours, MMC alone 24 hours
Method: as §2
For the QFM duplicate samples of 500 cells each were counted and scored for the incidence of apoptotic chromatin condensation using an Olympus BH-2 fluorescence microscope.

MKN-74 cells [4] = assay: TdT assay with flow cytometry; format: cell-based, human; conditions: 24 hours; safingol 50 μM, MMC 5 μg/ml
Method: Apoptosis was measured by two different methods: (i) Quantitative fluorescent microscopy (QFM) of nuclear changes induced by apoptosis, as determined by bisbenzimide trihydrochloride (Hoescht-33258) staining of nuclear chromatin (15), and (ii) a terminal deoxynucleotidyl transferase (TdT) assay that labels the 3′-OH ends of DNA fragments produced in apoptotic cells (16). […] MMC was diluted in water. A stock safingol solution was constituted in DMSO and was subsequently diluted at least 1:100 in media for all experiments. […] For QFM determinations, the cells were fixed in 3% paraformaldehyde and incubated at room temperature for 10 minutes. […] Aliquots of the cells (10 μl) were placed on glass slides coated with 3-amino-propyl-triethoxysilane, and duplicate samples of 500 cells each were counted and scored for the incidence of apoptotic chromatin condensation using an Olympus BH-2 fluorescence microscope equipped with a BH2-DM2U2UV Dich. […] Green (d-dUTP labeled DNA strand breaks) and red (PI staining for total DNA content) fluorescence of individual cells were measured on a FACScan flow cytometer (Becton Dickinson, San Jose, Calif.). […] The R1 cursor was set using the control specimen to define normal levels of green fluorescence (i.e., basal levels of apoptosis). Cells with fluorescence above the R, cursor were considered apoptotic. […]

PKC = conditions: cited from earlier work

SMILES: CO[C@@]12[C@H](COC(N)=O)C3=C(C(=O)C(C)=C(N)C3=O)N1C[C@@H]1N[C@@H]12 [MMC, Mitomycin-C]
- inhibition of cell proliferation ([1]; MMC 5 μg/ml): < 20% and 20%
- percentage of cells undergoing apoptosis (QFM) ([2]; 24 hours, MMC 5.0 μg/ml): 6%±1
- percentage of cells undergoing apoptosis (QFM) ([2]; 24 hours, MMC […]): 4%±2
- induction of apoptosis (condensed chromatin, 400 cells) ([2]; MDA-MB-468, 24 hours, UCN-01 7.5 to 10 μM, MMC 5 μg/ml): 6% ± 1
- percentage of cells undergoing apoptosis ([2]; MDA-MB-468, flavopiridol, MMC): 10%±2%
- cdk2 activity (cdk2): decreased cdk2
- Percent Apoptosis (MKN-74 cells [3]; 24 h continuous (single drug) or concomitant, flavopiridol 300 nM, MMC 1 μg/ml, paclitaxel 50 μM, carboplatin): 7%±1%
- % APOPTOSIS (MKN-74 cells [3]; 24 hours, FLAVO 300 nM, Taxol 50 μM, MMC 1 μg/ml, single drugs or in combination): 7%
- percent induction of apoptosis, Concomitant (MKN-74 cells [3]; 24 hours, FLAVO 300 nM, Taxol 50 μM, MMC 1 μg/ml, single drugs or together): 7% ± 1%
- induction of apoptosis (condensed chromatin, 400 cells) (MKN-74 cells [3]; 24 hours, PKC inhibitor 1 to 4 μM, MMC 5 μg/ml): 10% ±2%
- percentage of cells undergoing apoptosis (QFM) (MKN-74 cells [3]; 24 hours, RO 32-0432 1 μM, MMC): 16%±2%
- induction of apoptosis (QFM) (MKN-74 cells [3]; 24 hours, safingol 50 μM, UCN-01 10 μM, MMC 5 μg/ml): 26%±5%
- induction of apoptosis (QFM) (MKN-74 cells [3]; FIG. 7, 24 hours, flavopiridol 300 nM, MMC 50 μM (as printed b127)): 7%±1%
- percentage of cells undergoing apoptosis (QFM) (MKN-74 cells [3]; MKN-74 (wild-type p53), 24 hours, safingol 50 μM, MMC 5 μg/ml): 40%
- induction of apoptosis (condensed chromatin, 400 cells) (MKN-74 cells [3]; MKN-74, 24 hours, Flavo 300 nM, MMC 5 μg/ml): 7% ± 1
- percent induction of apoptosis, 6hrs (MKN-74 cells [3]; Ro 2 μM, MMC 1 μg/ml): 1.0%
- percent induction of apoptosis, 12hrs (MKN-74 cells [3]; Ro 2 μM, MMC 1 μg/ml): 0.8%
- percent induction of apoptosis, 24hrs (MKN-74 cells [3]; Ro 2 μM, MMC 1 μg/ml): 5.8%
- percent induction of apoptosis, 48hrs (MKN-74 cells [3]; Ro 2 μM, MMC 1 μg/ml): 27%
- percent induction of apoptosis, 72hrs (MKN-74 cells [3]; Ro 2 μM, MMC 1 μg/ml): 30%
- percentage of cells undergoing apoptosis (QFM) (SK-GT-5 cells): 36%±4
- apoptotic cells: green fluorescence above R1 region (TdT assay) (MKN-74 cells [4]): increased green fluorescence

SMILES: CCCCCCCCCCCCCCC[C@H](O)[C@@H](N)CO [safingol, L-threo-dihydrosphingosine]
- highest non-toxic dose (cell proliferation studies) ([1]; SK-GT / SK-GT-5 / gastric cancer cells, 24 hours): 50 µM
- concentration range that inhibits PKC activity (PKC): micromolar ranges
- IC50 (PKC; safingol, in vitro, read-out: concentration which inhibits PKC enzyme activity by 50%): 33 µM and 30 µM
- percentage of cells undergoing apoptosis (QFM) ([2]; 24 hours, MMC 5.0 μg/ml): 11%±1
- cdk2 activity (cdk2): decreased cdk2
- potentiation of MMC-induced apoptotic response by addition of safingol (MKN-74 cells [3]; MKN-74): approximately 2 fold
- percentage of cells undergoing apoptosis (QFM) (SK-GT-5 cells): essentially no effect on inducing apoptosis
- potentiation of MMC-induced apoptotic response by addition of safingol (SK-GT-5 cells; SK-GT-5): approximately 2 fold
- apoptotic cells: green fluorescence above R1 region (TdT assay) (MKN-74 cells [4]): essentially no apoptosis
